Measurements from patent US20230414657A1, “Novel compositions for neutralizing toxic effects of hydrogen peroxide in living cells or tissues” (Dzala LLC, priority 2020, published 2023).
Where two headings read alike, the source gives them in different places.

What was measured:
C. elegans [1] = test: Quantification of glutathione (GSH/GSSG-Glo); type: in vivo; details: for GSH-to-GSSG ratio: plus supplement; for GSH/GSSG ratio: H2O2-treated worms plus 100 μM glycine or 500 μM L-serine
Protocol: Sample preparation was performed as described previously with some modifications^6. From each condition 10,000 synchronized animals were harvested and washed 3 times with sterile water. […] To thoroughly lyse the worms, 5 cycles of freezing and thawing were performed in a water bath at 37° C., followed by a 1-min sonication. The samples were then centrifuged and the supernatant tested for protein estimation and GSH quantification. Total GSH, GSSG, and GSH/GSSG ratios were quantified using the GSH/GSSG-Glo assay kit (Promega) following the instructions of the manufacturer. Briefly, each sample was tested in triplicate in 96-well culture plates with total glutathione or GSSG lysis reagent, for total glutathione or GSSG measurement, respectively. The GSH probe, luciferin-NT, was converted to luciferin, which is coupled to a firefly luciferase. The plates were then read in an […] plate reader (Perkin Elmer, United States). The GSSG value was subtracted from the total glutathione to calculate GSH levels and GSH/GSSG ratio. Four biological replicates were analyzed for each condition.

C. elegans [2] = test: Oxygen consumption rate (OCR), Seahorse XFe96; type: in vivo
Protocol: Oxygen consumption of worms was measured with a Seahorse XFe96 system (Seahorse Bioscience, North Billerica, MA), as previously described^4. L3 larvae of the different strains were grown on plates or in liquid culture and supplemented for 2-4 days as described for each experiment. After removing bacteria and debris, approximately 100 worms were pipetted into each well of a 96-well Seahorse XF^e assay plate and OCR was measured until it stabilized. Then, 3 subsequent measurements were made at 6.5-min intervals. Finally, the exact number of worms in each well was counted and used for normalization. A small number of abnormal readings were also filtered out at this stage. On average, 7-8 wells (technical replicates) were used for each condition. Normalized OCR values were averaged for the last 3 measurements for each strain and condition. Four biological replicates were analyzed for each condition.

C. elegans [3] = test: Growth rate / worm size; type: in vivo; details: for Growth: 100 mM H2O2 plus supplement (10 mM GA, 100 μM glycine or 500 μM L-serine)
Protocol: (§1) Synchronized L1 worms were incubated at 15° C. on plates or in liquid culture and exposed to different conditions as indicated. Single worms were selected randomly from the plates or aliquots were taken from the liquid cultures and added to NGM plates for immediate visualization. 25 worms per treatment were measured at 24-48 hr intervals and all growth curves were done four times.

C. elegans [4] = type: in vivo
Protocol: Mitochondrial staining was performed as described previously^3,4. Briefly, L1 worms were grown on plate or in liquid culture for 2-3 days at 15° C. […] Next, the excess dye was washed off with M9 buffer and worms were incubated in 100 μl M9 for 30 min to eliminate the excess dye in the gut. Finally, worms were paralyzed with 0.5 mM Levamizol (Sigma-Aldrich), placed on slides covered with a thin layer of 2% agarose on top of which the coverslip (22×22 mm, Menzel-Glaser no. 1) was fixed using nail polish. We used a Zeiss LSM 700 inverted laser scanning confocal microscope and a Zeiss LCI Plan-Neofluar 63×/1.3 ImmCorr DIC M27 objective to image mitochondria (Zeiss, Germany). MitoTracker Red CMXRos was excited at 555 nm and the emission above 560 nm was acquired by the second PMT. Optical sections at 0.1×0.1×0.5 μm^3 x-y-z resolution were collected in […]. Final images were adjusted for intensity and merged in Fiji. No non-linear adjustments were made.

C. elegans [5] = test: H2O2 accumulation in worms (Amplex Red); type: in vivo; details: peroxide + GA with glutathione synthesis blocked by BSO
Protocol: Hydrogen peroxide was measured using the Amplex Red hydrogen peroxide/peroxidase assay kit (Molecular Probes, Eugene, OR), adapting the protocol to C. elegans. In the presence of hydrogen peroxide, Amplex Red is oxidized by horseradish peroxidase to form a red-fluorescent oxidation product whose fluorescence intensity can be measured.
To measure ROS production from C. elegans, 5000-7000 L1 worms were exposed to each condition for 2-3 days as indicated and then washed four times in 1 ml of the reaction buffer supplied with the kit. Volumes were adjusted to 700-1200 nematodes/50 μl and 50 μl was pipetted into a 96-well plate. A total of 50 μl of the Amplex Red reaction buffer was then added to the wells, and after 1 hr fluorescence was measured with a fluorescence microplate reader using excitation at 530±12.5 nm and fluorescence detection at 590±17.5 nm. Background fluorescence, determined for a no-H2O2 control reaction, was subtracted from each value. The significance of differences between conditions was determined by an unpaired fest. GraphPadPrism 8.0 was used for these calculations. Three biological replicates were carried out for each condition.

C. elegans [6] = test: Peroxide treatment of mutant, RNAi or unstressed worms: MMP, OCR and growth read together; type: in vivo; details: for Restoration of MMP, OCR or growth rate: H2O2, RNAi against mel-32 or gcst-1; for MMP, OCR, growth rate: H2O2, worms fed with empty vector RNAi bacteria; for Response to glycine and L-serine: ghpr-1 and ghpr-1, ldh-1, gox-1 mutants fed with mel-32 RNAi bacteria; for Deleterious effects of peroxide (MMP, respiration, size): ghpr-1 single and ghpr-1, gox-1, ldh-1 triple mutants, H2O2 plus glycine or L-serine
Text: C. elegans wild-type (N2) strain was received from Caenorhabditis Genetics Center, USA. Mutant strains were generated using the following primers. Idh-1: […] and […]; C31C9.2 (ghpr-1): […] and […]and F41E6.5 (gox-1): […]and[…]. […] Progeny of the rescued strains were genotyped for homozygous deletion with PCR primers for three generations. All mutants were outcrossed at least twice with the wild type to eliminate background mutations. Double and triple mutants were obtained by crossing single or double mutants and selecting the homozygous progeny by PCR.
For RNAi experiments in liquid, E. coli HT115 containing L4440 empty vector or the indicated cDNA fragment in L4440 was inoculated in 100 ml of LB containing 100 μg/ml ampicillin and incubated overnight at 37° C. in a shaking incubator at 250 rpm. To induce the production of dsRNA, a final concentration 0.8 mM IPTG was added to the collected bacterial pellet diluted 100-fold and incubated overnight at 25° C. in a shaking incubator at 250 rpm. Bacteria were then pelleted by centrifugation at 4000 rpm for 5 mins and resuspended in 200 μl S-medium containing 100 μg/ml ampicillin and 0.8 mM IPTG.
A population of synchronized L1 larvae was added to 30-ml glass tubes containing 2.5 ml of S-complete medium (liquid culture)^2 and NA22 or induced RNAi bacteria at an OD600 of 1.9. […] Worms were incubated at 15° C. and 150 rpm in a shaking incubator for 2-6 days, refreshing the medium every 2 days.
Mitochondrial staining was performed as described previously^3,4. Briefly, L1 worms were grown on plate or in liquid culture for 2-3 days at 15° C. Subsequently, they were pelleted in a 15-ml tube, rinsed twice with H2O and resuspended in 100 μl of M9. 5 μM MitoTracker Red CMXRos (Thermo Fisher Scientific, Germany) in DMSO was added to the worm suspension and incubated in this solution for 1.5 hr at room temperature in the dark. Next, the excess dye was washed off with M9 buffer and worms were incubated in 100 μl M9 for 30 min to eliminate the excess dye in the gut. Finally, worms were paralyzed with 0.5 mM Levamizol (Sigma-Aldrich), placed on slides covered with a thin layer of 2% agarose on top of which the coverslip (22×22 mm, Menzel-Glaser no. 1) was fixed using nail polish. We used a Zeiss LSM 700 inverted laser scanning confocal microscope and a Zeiss LCI Plan-Neofluar 63×/1.3 ImmCorr DIC M27 objective to image mitochondria (Zeiss, Germany). MitoTracker Red CMXRos was excited at 555 nm and the emission above 560 nm was acquired by the second PMT. Optical sections at 0.1×0.1×0.5 μm^3 x-y-z resolution were collected in a 4D hyperstack. Final images were adjusted for intensity and merged in Fiji. No non-linear adjustments were made.
as §1, with “times. Images were analyzed using FIJI (Image J) software, with length measurements derived by the sum-total of a number of segmented lines of known length, down the center of the worm as described previously^5.” for “times.”
Oxygen consumption of worms was measured with a Seahorse XFe96 system (Seahorse Bioscience, North Billerica, MA), as previously described^4. L3 larvae of the different strains were grown on plates or in liquid culture and supplemented for 2-4 days as described for each experiment. After removing bacteria and debris, approximately 100 worms were pipetted into each well of a 96-well Seahorse XF^e assay plate and OCR was measured until it stabilized. Then, 3 subsequent measurements were made at 6.5-min intervals. Finally, the exact number of worms in each well was counted and used for normalization.

C. elegans [7] = test: NADPH and NADP+ quantification by LC-MS; type: in vivo; details: 100 mM H2O2 plus 10 mM glycolate, 100 μM glycine or 500 μM L-serine, 3 days
Protocol: To measure NADP^+ and NADPH from C. elegans, 10000-15000 L1 worms were exposed to each condition in duplicates for 3 days and then washed four times with H2O. […] 25 µM solutions of each nucleotide were treated in parallel as standards. Homogenization for 15 min at 4° C. and 300 g was carried out in a TissueLyser II (Qiagen) after adding ⅓ volume of 0.5 mm zirconium beads. The resulting mixture was centrifuged at 13,000 g and the supernatant transferred to a new tube.
LC-MS/MS analysis of the samples was performed on a high-performance liquid chromatography (HPLC) system (1200 Agilent) coupled online to G2-S QTOF (Waters). For normal phase chromatography Bridge Amide 3.5 ml (2.1×100 mm) column from Waters was used. The mobile phase composed of eluent A and eluent B (40% acetonitrile, 0.1 mM ammonium acetate and 0.01% NH40H) was applied with the following gradient program: Eluent B, from 0% to 100% within 18 min; 100% from 18 min to 21 min; 0% from 21 min to 26 min. The flow rate was set at 0.3 ml/min. The spray voltage was set at 3.0 kV and the source temperature was set at 120° C. Nitrogen was used as both cone gas (50 L/h) and desolvation gas (800 L/h), and argon as the collision gas. MS^E mode was used with Bridge Amide 3.5 µl (2.1×100 mm) column in ESI negative ionization polarity for the detection of the nucleosides. Mass chromatograms and mass spectral data were acquired and processed by MassLynx software (Waters). Three and four biological replicates were analyzed for each condition of mel-32 RNAi and EV, respectively.

C. elegans [8] = details: in vivo, 3 days
Protocol: To quantify the uptake of glycolate, glycine and L-serine approximately 10000 synchronized L1 were incubated in liquid cultures as described above and grown for 3 days in the presence of […] of [1-^14C]-glycolate, [1-^14C]-glycine or L-[1-^14C]-serine. At this stage, worms were snap-frozen and stored at […]. Animals were lysed by freezing/thawing and extracted by using the Bligh and Dyer method^7. After phase separation, organic and aqueous fractions were recovered from the lower and upper phases, respectively. After drying and concentration, radioactivity was quantified using a scintillation counter and normalized for total number of worms.

[9] = H2O2-treated animals defective in mel-32 or gcst-1 (RNAi)
[10] = H2O2-treated worms fed with empty vector
[11] = 100 mM H2O2 plus supplement (10 mM GA, 100 μM glycine or 500 μM L-serine)

| Compound | Biosynthesis of glutathione (C. elegans [1]; 0.5 mM BSO, FIG. 2) | GSH/GSSG per worm (C. elegans [1]; H2O2 + GA + BSO, control 107.5) | Total glutathione (C. elegans [1]; H2O2 + GA + inhibitor BSO) | Respiration rate (OCR) (C. elegans [2]; H2O2 + GA + BSO (0.5 mM)) | Growth rate (C. elegans [3]; H2O2 + GA + BSO (0.5 mM)) | Mitochondrial membrane potential (MMP) (C. elegans [4]; H2O2 + GA + BSO (0.5 mM)) | Accumulation of H2O2 (C. elegans [5]) | GSH-to-GSSG ratio (C. elegans [1]; [9]) | GSH-to-GSSG ratio (C. elegans [1]; [10]) | GSH/GSSG ratio (C. elegans [1]) | Respiration rate (OCR) (C. elegans [2]; [11]) | Restoration of MMP, OCR or growth rate (C. elegans [6]) | MMP, OCR, growth rate (C. elegans [6]) | Response to glycine and L-serine (C. elegans [6]) | Deleterious effects of peroxide (MMP, respiration, size) (C. elegans [6]) | Growth (C. elegans [3]) | Ratio of NADPH to NADP+ (C. elegans [7]) | Mitochondrial membrane potential (MMP) (C. elegans [4]; [11]) | Radioactivity in labelled animals (uptake) relative to [14C]GA (C. elegans [8]) [times higher] |
| --- | --- | --- | --- | --- | --- | --- | --- | --- | --- | --- | --- | --- | --- | --- | --- | --- | --- | --- | --- |
| CCCCS(=N)(=O)CCC(N)C(=O)O [BSO, L-buthioninesulfoximine, reference compound] | inhibited | 36 | 65 % of the control | prevented the GA-mediated improvement | prevented the GA-mediated improvement | prevented the GA-mediated improvement | unchanged |  |  |  |  |  |  |  |  |  |  |  |  |
| N[C@@H](CO)C(=O)O [L-serine] |  |  |  |  |  |  |  | strongly reduced | maintained close to control levels | able to restore | able to restore | none of these three compounds were able to restore | restored parameters | loss of response | overcome the deleterious effects of peroxide | able to restore | much weaker, but still significant, increase | able to restore | 3 |
| NCC(=O)O [glycine] |  |  |  |  |  |  |  | strongly reduced | maintained close to control levels | able to restore | able to restore | none of these three compounds were able to restore | restored parameters | loss of response | overcome the deleterious effects of peroxide | able to restore | fully rescued | able to restore |  |
